Data on two molecules can be found in article PMC10388363, “Novel 1,4-Dihydropyridines as Specific Binders and Activators of SIRT3 Impair Cell Viability and Clonogenicity and Downregulate Hypoxia-Induced Targets in Cancer Cells” (Journal of Medicinal Chemistry, 2023).

Like-named read-outs stand apart in the source and are kept apart here.

One data set concerns the target T1, human SIRT3 (Homo sapiens, UniProt Q9NTG7).
T1 construct: pET151D/Topo (Sirt3-114-380 and Sirt5-34-302); His tag (N, cleaved yes); made in house; host or cells: Escherichia coli
T1 sequence (Q9NTG7 114-380): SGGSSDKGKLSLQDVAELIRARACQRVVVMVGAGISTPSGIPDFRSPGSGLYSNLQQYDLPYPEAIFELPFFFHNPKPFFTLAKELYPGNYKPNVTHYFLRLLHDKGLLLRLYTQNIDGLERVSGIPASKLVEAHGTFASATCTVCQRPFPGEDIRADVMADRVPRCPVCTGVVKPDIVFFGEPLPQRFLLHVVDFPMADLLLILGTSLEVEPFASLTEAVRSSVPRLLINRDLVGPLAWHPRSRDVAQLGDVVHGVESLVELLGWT
Kind of data set: PncA/GDH-coupled deacylation assay, SIRT3 activation (ACS2-acK642 substrate). The class given is biochemical. The settings on record: 100 μM, 387% vs 269%. The protocol:
To avoid artifacts and other non-specific effects, instead of the “Fluor-de-Lys” (FdL) substrate, we used a PncA/GDH-coupled deacylation assay by measuring the NADPH oxidation to NADP^+ that relies on isoform-specific non-modified physiological acetyl or succinyl substrates [p53-acK381 for SIRT1, α-tubulin-[…] for SIRT2, acetyl-CoA synthetase 2 (ACS2)-acK642 for SIRT3, and CPS1-succK537 for SIRT5].[59] The assays were carried out using the 1,4-DHP derivatives 2a–n and 3a–d against SIRT3, including the prototype compounds 2 and 3 as positive controls.
N-terminally his-tagged human sirtuins were expressed in Escherichia coli using constructs in pET15b (Sirt1) or pET151D/Topo (Sirt3-114-380 and Sirt5-34-302).[4],[59],[61] Sirt2-43-356 was expressed from a modified pET19b containing a TEV protease cleavage site and an N-terminal SUMO-tag.[59],[79] Proteins were expressed and purified as described elsewhere.[59],[61],[79]−[81] In brief, proteins were expressed in E. coli, crude extracts were cleared by centrifugation, and the proteins were affinity purified using NiNTA beads.
Sirtuin deacylation activities were analyzed by using a coupled enzymatic assay as described in.[59],[82] […]

Data set [1] can be described thus: Cell viability / cell death in healthy HaCaT cells. The following applies: human, HaCaT cells (healthy keratinocytes), HaCaT. Format: cell-based, human. As for the experimental part:
Breast cancer cell line MDA-MB-231, anaplastic thyroid cancer cell line CAL-62 and human keratinocytes HaCaT were purchased from ATCC and were cultured in RPMI 1640 medium (R0883 Sigma Aldrich-MERCK) (MDA-MB-231 and CAL-62) or DMEM medium (11965092, Gibco) supplemented with 10% fetal bovine serum (Sigma-Aldrich-MERCK, F9665), 2 mM glutamine (G7513; Sigma-Aldrich-MERCK), 100 units/mL penicillin and 0.1 mg/mL streptomycin (P0781; Sigma-Aldrich-MERCK). Adherent cells were detached by Trypsin–EDTA solution (TA049; Sigma-Aldrich-MERCK). Cells were maintained at 37 °C in humidified incubator with 5% CO2. Cells were treated with […] (CoCl2) (Merck; C8661) dissolved in distilled, sterile water for 24 h to induce hypoxia (200 μM). […] SIRT3 inhibitor 3-TYP was dissolved in DMSO and added to a final concentration of 1 μM for 24 and/or 48 h.
Cell viability was assessed by the trypan blue exclusion assay. At the end of treatments, cells were harvested and stained with 0,4% trypan blue (Merck; T8154). The cell suspension was applied to a hemocytometer and counted with phase contrast microscopy (NIKON EclipseTE2000U, Nikon Netherlands, Amsterdam, The Netherlands).

Data set [2] concerns CAL-62 cells. Kind of data set: Clonogenic assay, CAL-62. The class given is cell-based. The following applies: Homo sapiens; CAL-62, 48 h, normoxia; read-out: IC50 against colonies formation. The protocol:
(§1) Afterward, the selected compounds 3a–d were assayed at 50 μM for 24 and 48 h in CAL-62 and MDA-MB-231 cells to assess their ability to impair the cell viability and colony formation in either normoxia or hypoxia-induced condition, the latter obtained by adding a 200 μM cobalt chloride solution, as described in previous reports[69] (Figure 8). Most cancer cells, mainly solid types, are known to have an altered metabolism due to hypoxia, a non-physiological level of oxygen tension, which contributes to therapy resistance by causing cellular quiescence.[70] Moreover, hypoxic cancer cells can induce several factors that lead to cell proliferation and colony formation.[71]
(§2) Cells were seeded in a 100 mm dish and, once at 80–90% confluence, treated as described in the Results and Discussion section. After 24 and 48 h, cells were collected, counted, and 500 cells plated in a 100 mm dish. After about 7 days for CAL62 and 10 days for MDA-MB-231, plates were washed with phosphate-buffered saline solution (PBS); (Merck; 79382), and clones were fixed with 4% formaldehyde solution in PBS (Merck; F8775) at room temperature for 15 min. After that, the dishes were washed with PBS, and clones stained for 5 min with 0.5% crystal violet (Merck; C0775). Finally, the plates were washed with distilled water and air-dried. After scanning each individual dish, the colonies were counted the following day.

Data set [3] has as its system CAL-62 cells. Kind of data set: Cell viability / cell death, trypan blue exclusion, CAL-62. Format: cell-based. The following applies: for IC50: read-out: IC50 cell viability reduction.
In another data set the test system is MDA-MB-231 cells. Kind of data set: Clonogenic assay, MDA-MB-231. The settings on record: for reduction of clonogenicity: MDA-MB-231, 50 μM, 48 h. The class given is cell-based, human. The protocol:
as §1, §2

With `CCOC(=O)C1=CN(C(=O)c2ccc(OC)c(OC)c2)C=C(C(=O)OCC)C1c1ccccc1` [Compound 3c, Diethyl 1-(3,4-dimethoxybenzoyl)-4-phenyl-1,4-dihydropyridine-3,5-dicarboxylate], the “SIRT3 activation potency relative to reference 3” value at human SIRT3 amounted to 1.4 fold.

The term viability denotes a read-out of living cells in per cent, often relative to untreated cells. What is called IC50 is the midpoint of a concentration-inhibition curve. On to `CCOC(=O)C1=CN(C(=O)c2cc(OC)cc(OC)c2)C=C(C(=O)OCC)C1c1ccccc1` [Compound 3d, Diethyl 1-(3,5-dimethoxybenzoyl)-4-phenyl-1,4-dihydropyridine-3,5-dicarboxylate], for which the viability at 24 h, 5 µM in data set [1] (5 μM, 24 h, read-out: Cell viability (%) T24) stood at 96.1%. Besides, in data set [1] (5 μM, 48 h, read-out: Cell viability (%) T48), the viability at 48 h, 5 µM was determined as 83.9%. Besides, in data set [1] (10 μM, 24 h, read-out: Cell viability (%) T24), the viability at 24 h, 10 µM was determined as 91.6%. In data set [1] (10 μM, 48 h, read-out: Cell viability (%) T48), the viability at 48 h, 10 µM stood at 66.1%. For the same molecule, the viability at 24 h, 25 µM in data set [1] (25 μM, 24 h, read-out: Cell viability (%) T24) was found to be 84.7%. For the same molecule, the viability at 48 h, 25 µM in data set [1] (25 μM, 48 h, read-out: Cell viability (%) T48) amounted to 52.7%. The IC50 is approximately 2500 nM in the data set with CAL-62 cells [2]; approximately 3500 nM in the data set on CAL-62 cells [3] (Homo sapiens, CAL-62, 48 h, hypoxia); approximately 16700 nM with CAL-62 cells [3] (Homo sapiens, CAL-62, 48 h, normoxia); approximately 2200 nM in the data set with MDA-MB-231 cells (Homo sapiens, MDA-MB-231, 48 h, normoxia, read-out: IC50 against colonies formation). Moreover, the “Cell death (%) T24” value is reported as 14,3% in the data set on CAL-62 cells [3] (CAL-62, 5 μM, 24 h); 20,4% in the data set on CAL-62 cells [3] (CAL-62, 10 μM, 24 h); 25,6% in the data set on CAL-62 cells [3] (CAL-62, 25 μM, 24 h). The “Cell death (%) T48” value was 21,7% in the data set with CAL-62 cells [3] (CAL-62, 5 μM, 48 h) and 66,1% with CAL-62 cells [3] (CAL-62, 25 μM, 48 h). For the same molecule, the “higher efficacy in hypoxia than in normoxia (cell viability reduction and cell death induction)” value with CAL-62 cells [3] (CAL-62, 48 h) is on record as 4.8 fold. Moreover, the viability at 5 µM with CAL-62 cells [3] (Homo sapiens, CAL-62, 5 μM, 24 h, read-out: Cell viability (%) T24) came to 85.7%; with CAL-62 cells [3] (Homo sapiens, CAL-62, 5 μM, 48 h, read-out: Cell viability (%) T48), 78.3%. For the same molecule, in the data set on CAL-62 cells [3] (Homo sapiens, CAL-62, 10 μM, 48 h, read-out: Cell viability (%) T48), the viability at 10 µM was 63.5%. For the same molecule, the viability at 25 µM amounted to 74.4% in the data set with CAL-62 cells [3] (Homo sapiens, CAL-62, 25 μM, 24 h, read-out: Cell viability (%) T24) and 33.8% in the data set with CAL-62 cells [3] (Homo sapiens, CAL-62, 25 μM, 48 h, read-out: Cell viability (%) T48). The reduction of clonogenicity in the data set on MDA-MB-231 cells (hypoxia) is reported as 95%; in the data set on MDA-MB-231 cells (normoxia) it was 86%.
